The values that follow are results of earlier work, collected in article PMC6311893, “Computational prediction of plasma protein binding of cyclic peptides from small molecule experimental data using sparse modeling techniques” (BMC Bioinformatics, 2018).

The subject of the series is plasma protein. The note with it: cited from earlier work.
Setting [1] is: fraction bound to plasma protein, small molecule dataset, sheet 1-SM, ref Ingle et al.
The mark [2] stands for this setting: fraction bound to plasma protein, small molecule dataset, sheet 1-SM (Set Dte = test, Dtr = training), ref Ingle et al.
Where [3] appears, read: fraction bound to plasma protein, small molecule dataset, sheet 1-SM, Set Dtr, ref Ingle et al.

Counter-ions that a name gives are not always drawn. Like-named read-outs stand apart in the source and are kept apart here.

For `CCCCNc1ccc(C(=O)OCCN(C)C)cc1` [tetracaine], the “PPB (fb)” value under setting [1] was 0.85.
On to `CC(C)Cc1ccc(C(C)C(=O)NC(C)C(=O)O)cc1` (stereo not shown) [JMC_09], for which the “PPB (fb)” value under setting [2] was 0.96.
As for `CC1(C)S[C@@H]2[C@H](NC(=O)[C@H](N)c3ccccc3)C(=O)N2[C@H]1C(=O)O` [Ampicillin], the “PPB (fb)” value (plasma) was 0.16.
Turning to `COCC(=O)O[C@]1(CCN(C)CCCc2nc3ccccc3[nH]2)CCc2cc(F)ccc2[C@@H]1C(C)C` [Mibefradil], the “PPB (fb)” value under setting [2] is listed as 0.99.
Take `CCCCOCC(=O)NC1C(=O)N2C1SC(C)(C)C2C(=O)O` (stereo not shown) [penicillin7]: the “PPB (fb)” value under setting [1] is listed as 0.59.
Consider `CCN(CC)C(=O)/C(C#N)=C/c1cc(O)c(O)c([N+](=O)[O-])c1` [Entacapone], for which, under setting [3], the “PPB (fb)” value is 0.98.
Consider Iloprost, for which the “PPB (fb)” value (plasma) is 0.6.
As for `N=C(N)c1ccc(CNC(=O)[C@@H]2CCN2C(=O)[C@H](NCC(=O)O)C2CCCCC2)cc1` [Melagatran], the “PPB (fb)” value under setting [3] is recorded as 0.07.
On to `CC(=O)N(CC(O)CO)c1c(I)c(C(=O)NCC(O)CO)c(I)c(C(=O)NCC(O)CO)c1I` (stereo not shown) [Iohexol], for which, under setting [3], the “PPB (fb)” value was 0.02.
Turning to `CCCCNc1cc(C(=O)O)cc(S(N)(=O)=O)c1Oc1ccccc1` [Bumetanide], under setting [3], the “PPB (fb)” value is on record as 0.96.
In the case of `CC1(C)SC2C(NC(=O)C(Br)c3ccccc3)C(=O)N2C1C(=O)O` (stereo not shown) [penicillin21], under setting [2], the “PPB (fb)” value is 0.82.
With `Cc1ncsc1CCCl` [Chlormethiazole], the “PPB (fb)” value (plasma) is 0.64.
Regarding `CC12CC(=O)C3C(CCC4CC(O)CCC43C)C1CCC2C(=O)CO` (stereo not shown) [alfadolone], the “PPB (fb)” value under setting [2] was 0.3.
Regarding `O=C(O)c1ccc(O)cc1` [p-hydroxybenzoic acid], the “PPB (fb)” value under setting [1] is on record as 0.35.
Consider nilvadipine, for which, under “plasma”, the “PPB (fb)” value is recorded as 0.99.
Take `CCC1CN2CCC1CC2[C@@H](O)c1ccnc2ccc(OC)cc12` (stereo partly shown) [Dihydroquinidine]: the “PPB (fb)” value under setting [3] is listed as 0.78.
As for `COc1cnc2ccccc2c1C(=O)NC1C(=O)N2C1SC(C)(C)C2C(=O)O` (stereo not shown) [penicillin76], the “PPB (fb)” value under setting [1] is 0.57.
Consider `O=C1c2ccccc2C(=O)C1c1ccccc1` [phenindione], for which, under setting [1], the “PPB (fb)” value was 0.97.
As to `O=C(O)c1cn(-c2ccc(O)cc2)c2cc(N3CCNCC3)c(F)cc2c1=O` [8c(p-OH)], the “PPB (fb)” value under setting [2] is on record as 0.35.
Consider `NC(=O)c1ncn([C@@H]2O[C@H](CO)[C@@H](O)[C@H]2O)n1` [Ribavirin], for which the “PPB (fb)” value under setting [1] is 0.02.
Take `CC(=O)OCC1=C(C(=O)O)N2C(=O)[C@@H](NC(=O)CC#N)[C@H]2SC1` [cephacetrile]: the “PPB (fb)” value under setting [2] was 0.2.
`COCCc1ccc(OCC(O)CNC(C)C)cc1` (stereo not shown) [Metoprolol]: the “PPB (fb)” value under setting [2] was 0.11.
Regarding `NC(Cc1cc(I)c(Oc2cc(I)c(O)c(I)c2)c(I)c1)C(=O)O` (stereo not shown) [thyroxine], the “PPB (fb)” value under setting [2] is listed as 0.99.
Regarding `COc1ccc2c(C(=O)c3ccc(Cl)cc3)c(C)n(CC(=O)O)c2c1` [Clometacin], the “PPB (fb)” value (plasma) was 0.99.
`CC(C)[C@H](N)C(=O)OCCOCn1cnc2c(=O)[nH]c(N)nc21` [valacyclovir]: under setting [3], the “PPB (fb)” value was 0.18.
For the compound `Nc1nc(N)c2nc(-c3ccccc3)c(N)nc2n1` [Triamterene], under setting [1], the “PPB (fb)” value is listed as 0.59.
For the compound `O=[N+]([O-])O[C@H]1CO[C@H]2[C@@H]1OC[C@H]2O[N+](=O)[O-]` [Isosorbide Dinitrate], the “PPB (fb)” value (plasma) is 0.29.
On to `Cc1cccc(C)c1NC(=O)C(C)N` (stereo not shown) [Tocainide], for which the “PPB (fb)” value under setting [1] is given as 0.13.
For `COc1cccc(OC)c1CC(=O)NC1C(=O)N2C1SC(C)(C)C2C(=O)O` (stereo not shown) [penicillin18], the “PPB (fb)” value under setting [2] was 0.77.
Consider `CC(=O)NC(CS)C(=O)O` (stereo not shown) [n-acetylcysteine], for which the “PPB (fb)” value under setting [1] is 0.83.
In the case of `O=C(O)c1cn(-c2cccc([N+](=O)[O-])c2)c2cc(N3CCNCC3)c(F)cc2c1=O` [7b(m-NO2)], the “PPB (fb)” value under setting [2] is reported as 0.66.
As to `CC(=O)OCC1=C(C(=O)O)N2C(=O)[C@@H](NC(=O)Cc3cccs3)[C@H]2SC1` [Cephalothin], the “PPB (fb)” value under setting [3] is 0.73.
Regarding `O=C(CCCN1CC=C(n2c(=O)[nH]c3ccccc32)CC1)c1ccc(F)cc1` [droperidol], the “PPB (fb)” value under setting [1] was 0.95.
Take `O=C1NC(c2ccccc2)(c2ccccc2)C(=O)N1COP(=O)(O)O` [fosphenytoin]: the “PPB (fb)” value under setting [1] is 0.95.
For cefotiam, the “PPB (fb)” value (plasma) is given as 0.4.
Take Fluorescein: the “PPB (fb)” value (plasma) is 0.87.
Regarding `C[C@H]1O[C@@H](O[C@H]2CC[C@@]3(C)[C@H](CC[C@@H]4[C@@H]3C[C@@H](O)[C@]3(C)[C@@H](C5=CC(=O)OC5)CC[C@]43O)C2)C[C@H](O)[C@@H]1O[C@H]1C[C@H](O)[C@H](O[C@H]2C[C@H](O)[C@H](O[C@@H]3O[C@H](CO)[C@@H](O)[C@H](O)[C@H]3O)[C@@H](C)O2)[C@@H](C)O1` [deslanoside], the “PPB (fb)” value (plasma) is given as 0.2.
Consider `N=C(N)c1ccc(OCCCCCOc2ccc(C(=N)N)cc2)cc1` [pentamidine], for which the “PPB (fb)” value under setting [1] is reported as 0.7.
For the compound `COc1ccc(CCN(C)CCCC(C#N)(c2cc(OC)c(OC)c(OC)c2)C(C)C)cc1OC` (stereo not shown) [gallopamil], the “PPB (fb)” value under setting [1] is recorded as 0.9.
Regarding `Cn1cnc([N+](=O)[O-])c1Sc1ncnc2nc[nH]c12` [azathioprine], under setting [2], the “PPB (fb)” value was 0.25.
Turning to `CC(C)OC(=O)C(C)(C)Oc1ccc(C(=O)c2ccc(Cl)cc2)cc1` [fenofibrate], the “PPB (fb)” value under setting [1] is listed as 0.99.
With `CC(=O)Nc1ccccc1` [acetanilide], the “PPB (fb)” value under setting [2] is reported as 0.07.
Take `CC1(C)SC2C(NC(=O)C(Cl)c3ccc(Cl)cc3)C(=O)N2C1C(=O)O` (stereo not shown) [penicillin24]: under setting [1], the “PPB (fb)” value is 0.94.
Turning to `C#C[C@]1(O)CC[C@H]2[C@@H]3CCc4cc(O)ccc4[C@H]3CC[C@@]21C` [Ethinylestradiol], under setting [3], the “PPB (fb)” value is 0.97.
`CC[C@H]1OC(=O)[C@H](C)[C@@H](O[C@H]2C[C@@](C)(OC)[C@@H](O)[C@H](C)O2)[C@H](C)[C@@H](O[C@@H]2O[C@H](C)C[C@H](N(C)C)[C@H]2O)[C@](C)(O)C[C@@H](C)C(=O)[C@H](C)[C@@H](O)[C@]1(C)O` [Erythromycin]: under setting [3], the “PPB (fb)” value is given as 0.86.
As for `CC(=O)[C@]1(O)Cc2c(O)c3c(c(O)c2[C@@H](O[C@H]2C[C@H](N)[C@H](O)[C@H](C)O2)C1)C(=O)c1ccccc1C3=O` [Idarubicin], under setting [2], the “PPB (fb)” value is 0.95.
In the case of `COc1cc(Cc2cnc(N)nc2N)c2c(c1OC)OC(C1CC1)C=C2` (stereo not shown) [iclaprim], under setting [1], the “PPB (fb)” value was 0.93.
Take `COc1nc(N)nc2c1ncn2[C@@H]1O[C@H](CO)[C@@H](O)[C@@H]1O` [Nelarabine]: under setting [3], the “PPB (fb)” value is recorded as 0.2.
Regarding `CCOc1ccccc1OCCN[C@H](C)Cc1ccc(OC)c(S(N)(=O)=O)c1` [Tamsulosin], the “PPB (fb)” value under setting [1] was 0.97.
Regarding `C=CCN1C[C@H](C(=O)N(CCCN(C)C)C(=O)NCC)C[C@@H]2c3cccc4[nH]cc(c34)C[C@H]21` [cabergoline], under setting [2], the “PPB (fb)” value is on record as 0.41.
Consider `CO/N=C(\C(=O)N[C@@H]1C(=O)N2C(C(=O)OCOC(=O)C(C)(C)C)=C(/C=C\c3scnc3C)CS[C@H]12)c1csc(N)n1` [cefditoren-pivoxil], for which the “PPB (fb)” value under setting [2] was 0.88.
`CCC(CC)(CC)C(=O)NC1C(=O)N2C1SC(C)(C)C2C(=O)O` (stereo not shown) [penicillin20]: the “PPB (fb)” value under setting [1] was 0.94.
With `CC1(C)SC2C(NC(=O)C(N)c3cccc(N)c3)C(=O)N2C1C(=O)O` (stereo not shown) [penicillin31], under setting [1], the “PPB (fb)” value is recorded as 0.12.
For the compound `Cn1nnnc1SCC1=C(C(=O)O)N2C(=O)[C@@H](NC(=O)[C@H](O)c3ccccc3)[C@H]2SC1` [Cefamandole], the “PPB (fb)” value under setting [3] was 0.74.
As to `CC(C(N)=O)c1ccc(OS(=O)(=O)C(F)(F)F)cc1` (stereo not shown) [JMC_03], the “PPB (fb)” value under setting [1] is on record as 0.92.
With `CN(C)C(=O)Oc1cc(OC(=O)N(C)C)cc(C(O)CNC(C)(C)C)c1` (stereo not shown) [bambuterol], the “PPB (fb)” value under setting [2] is reported as 0.45.
Consider `COc1ccc(CCN2CCC(Nc3nc4ccccc4n3Cc3ccc(F)cc3)CC2)cc1` [astemizole], for which the “PPB (fb)” value under setting [2] is 0.97.
As to `Cc1ccc(S(=O)(=O)NC(=O)N[C@H]2[C@H]3CC[C@@](C)([C@H]2O)C3(C)C)cc1` [glibornuride], the “PPB (fb)” value under setting [1] is recorded as 0.95.
In the case of `CCC1=C(C)CN(C(=O)NCCc2ccc(S(=O)(=O)NC(=O)N[C@H]3CC[C@H](C)CC3)cc2)C1=O` [Glimepiride], the “PPB (fb)” value under setting [3] was 0.99.
Consider `CC1CCCC(C)N1CCCC(O)(c1ccccc1)c1ccccn1` (stereo not shown) [Pirmenol], for which the “PPB (fb)” value under setting [3] is 0.87.
Consider `COc1cccc2c1C(=O)c1c(O)c3c(c(O)c1C2=O)C[C@@](O)(C(=O)CO)C[C@@H]3O[C@H]1C[C@H](N)[C@@H](O)[C@H](C)O1` [Epirubicin], for which the “PPB (fb)” value under setting [3] is on record as 0.75.
Regarding `COc1cc(NC(C)CCCN)c2ncccc2c1` (stereo not shown) [primaquine], the “PPB (fb)” value under setting [1] was 0.8.
Consider `C[C@@H](NCCCc1cccc(C(F)(F)F)c1)c1cccc2ccccc12` [Cinacalcet hydrochloride], for which, under setting [2], the “PPB (fb)” value is recorded as 0.95.
With `Cc1nc2n(c(=O)c1CCN1CCC(c3noc4cc(F)ccc34)CC1)CCCC2O` (stereo not shown) [9-Hydroxyrisperidone], the “PPB (fb)” value under setting [2] is reported as 0.77.
Turning to `CCC(=O)O[C@]1(C(=O)SCF)[C@H](C)C[C@H]2[C@@H]3C[C@H](F)C4=CC(=O)C=C[C@]4(C)[C@@]3(F)[C@@H](O)C[C@@]21C` [Fluticasone propionate], under setting [3], the “PPB (fb)” value was 0.89.
Consider `COc1ccc(CCNCC(O)COc2cccc(C)c2)cc1OC` (stereo not shown) [Bevantolol], for which the “PPB (fb)” value under setting [2] is recorded as 0.97.
Turning to `CCC1(CC)C(=O)NC(=O)NC1=O` [barbital], where the note is “plasma”, the “PPB (fb)” value was 0.1.
For `CC1(C)SC2C(NC(=O)C(N)c3ccc(Cl)cc3)C(=O)N2C1C(=O)O` (stereo not shown) [penicillin28], under setting [1], the “PPB (fb)” value is given as 0.55.
Consider `CCCN[C@H]1CCc2nc(N)sc2C1` [pramipexole], for which, under setting [1], the “PPB (fb)” value is listed as 0.15.
In the case of `CC[C@@H](CO)NC(=O)[C@@H]1C=C2c3cccc4[nH]cc(c34)C[C@H]2N(C)C1` [methylergonovine], where the note is “plasma”, the “PPB (fb)” value is given as 0.35.
On to `Cc1cccc(N2CC(CO)OC2=O)c1` (stereo not shown) [Toloxatone], for which, where the note is “plasma”, the “PPB (fb)” value was 0.5.
In the case of `COc1cc(C)c(/C=C/C(C)=C/C=C/C(C)=C/C(=O)O)c(C)c1C` [acitretin], the “PPB (fb)” value is given as 0.99.
`CCC1(c2ccccc2)CCC(=O)NC1=O` (stereo not shown) [glutethimide]: the “PPB (fb)” value (plasma) is recorded as 0.5.
